Several values for one entry are separate records, joined by “and”; a condition that tells them apart may be missing. Equal entries are not always repeated. Where two headings read alike, the source gives them in different places. Non-standard residues stand in square brackets, D forms with d. Residues, ends and D or L forms follow the SMILES beside them. No end group written: not given here. Phe(4-NH2) = Nc1ccc(C[C@H](N)C(=O)O)cc1; Phe(2-F) = N[C@@H](Cc1ccccc1F)C(=O)O; d(aIle) = CC[C@H](C)[C@@H](N)C(=O)O; hArg = N=C(N)NCCCC[C@H](N)C(=O)O; hPhe = N[C@@H](CCc1ccccc1)C(=O)O; Cit = NC(=O)NCCC[C@H](N)C(=O)O; dTle = CC(C)(C)[C@@H](N)C(=O)O; Phg = N[C@H](C(=O)O)c1ccccc1; hLys = NCCCCC[C@H](N)C(=O)O; hSer = N[C@@H](CCO)C(=O)O; ChCar = not defined here; dAbu = CC[C@@H](N)C(=O)O; dia = not defined here
Experiments:
Type in all cases: biochemical
[1] = biological target: porcine pancreatic kallikrein (PPK) (Sus scrofa, UniProt P00752); assay: Inhibition of porcine pancreatic kallikrein, cleavage of chromogenic substrate S-2266 (KI)
porcine pancreatic kallikrein (PPK), sequence (P00752 8-87 limits assumed): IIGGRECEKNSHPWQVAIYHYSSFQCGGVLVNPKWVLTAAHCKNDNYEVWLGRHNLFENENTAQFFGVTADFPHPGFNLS
porcine pancreatic kallikrein (PPK), sequence (P00752 95-246 limits assumed): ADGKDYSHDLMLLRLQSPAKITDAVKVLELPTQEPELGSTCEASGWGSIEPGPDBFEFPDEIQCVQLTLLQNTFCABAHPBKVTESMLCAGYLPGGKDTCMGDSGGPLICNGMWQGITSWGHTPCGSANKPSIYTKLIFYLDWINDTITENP

[2] = biological target: human plasma kallikrein (HPK) (Homo sapiens, UniProt P03952); assay: Inhibition of human plasma kallikrein (KI)
human plasma kallikrein (HPK), sequence (P03952 20-638): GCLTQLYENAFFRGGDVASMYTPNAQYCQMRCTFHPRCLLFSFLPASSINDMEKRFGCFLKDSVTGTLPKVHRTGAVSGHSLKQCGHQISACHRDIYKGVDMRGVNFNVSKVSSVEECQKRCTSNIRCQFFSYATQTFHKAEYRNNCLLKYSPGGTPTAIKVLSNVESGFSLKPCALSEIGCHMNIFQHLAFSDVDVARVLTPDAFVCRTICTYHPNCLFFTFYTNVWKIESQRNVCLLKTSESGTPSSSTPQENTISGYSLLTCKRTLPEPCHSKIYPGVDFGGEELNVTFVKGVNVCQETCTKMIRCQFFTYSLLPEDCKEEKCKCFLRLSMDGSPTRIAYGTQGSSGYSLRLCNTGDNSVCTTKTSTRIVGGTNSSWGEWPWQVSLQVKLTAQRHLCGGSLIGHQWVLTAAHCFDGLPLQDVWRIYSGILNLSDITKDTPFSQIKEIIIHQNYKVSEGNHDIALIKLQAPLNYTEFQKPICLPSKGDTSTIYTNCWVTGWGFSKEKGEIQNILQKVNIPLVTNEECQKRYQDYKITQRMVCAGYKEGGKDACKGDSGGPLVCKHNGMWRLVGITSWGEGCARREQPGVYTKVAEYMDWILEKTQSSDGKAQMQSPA
Description: (§1) Assay methods were based on the cleavage of chromogenic substrate S-2266 (D-Val-Leu-Arg-pNA) (Kabi; Charlotte, N.C.) by porcine pancreatic kallikrein (Sigma Chemical Company; St. Louis, Mo.) to yield an increase in absorbance at 405 nm. By changing the substrate and enzyme, the general method has been extended to measure the inhibition of human tissue kallikrein (HTK or human urinary kallikrein HUK), human plasma kallikrein (HPK), plasmin, and urokinase (UK). In all assays, the robot dilutes the inhibitor into a series of wells and adds substrate and buffer. Chromogenic reactions are started by the addition of enzyme. Changes in the absorbance at 405 nm in an array of wells were recorded. All manipulations were performed by the instrument from reservoirs containing substrate, inhibitor, diluent (water), buffer, or enzyme.

[3] = biological target: T1, human urinary kallikrein (HUK) (Homo sapiens, UniProt P06870); assay: Inhibition of human urinary (tissue) kallikrein (KI); settings: read-out: KI HUK
T1 construct: Human urinary kallikrein (HUK) was purified from human urine; from tissue
T1 sequence (P06870 25-262): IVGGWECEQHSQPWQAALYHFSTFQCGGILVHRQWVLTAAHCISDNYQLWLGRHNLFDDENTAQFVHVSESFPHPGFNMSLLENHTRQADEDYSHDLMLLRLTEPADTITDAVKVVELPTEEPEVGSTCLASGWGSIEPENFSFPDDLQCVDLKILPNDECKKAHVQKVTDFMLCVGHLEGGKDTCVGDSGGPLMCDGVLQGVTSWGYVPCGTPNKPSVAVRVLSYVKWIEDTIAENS
Description: Human urinary kallikrein (HUK) was purified from human urine. Briefly, urine was subjected to ultrafiltration to concentrate the protein components which were applied to approtinin-CH-Sepharose affinity columns. Active fractions from these columns were next applied to Sephadex G-100 gel filtration and collected as fractions. The pH of each fraction was determined immediately upon elution, and the fraction was neutralized by addition of 2.0 ml of 2M Tris-HCL buffer, pH 8.0. Porcine pancreatic 24-kallikrein (PPK), at 50 units/mg protein; 1.0 units hydrolyses 1.0 μM BAEE (benzoyl -L-arginine ethyl ester) to N-a-benzoyl-L-arginine/minute at pH 8.7 at 25° C., was purchased from Sigma Chemical Company (St. Louis, Mo.). […] All other enzymes were purchased from Sigma Chemical Company (St. Louis, Mo.).
Dixon plots were used for data reduction and for calculation of […].
as §1

[4] = Table 5, Pro-Phe-Arg-X-Val-Gln, read-out: KI PPK
[5] = Table 5, Pro-Phe-Arg-X-Val-Gln, read-out: KI HPK
[6] = Table 4, Pro-X-Arg-Ser-Val-Gln, read-out: KI PPK
[7] = Table 4, Pro-X-Arg-Ser-Val-Gln, read-out: KI HPK
[8] = Table 2, P3 substitutions, read-out: log KI (converted)

Molecule: CC(C)[C@H](NC(=O)[C@H](C)NC(=O)[C@H](CCCNC(=N)N)NC(=O)[C@H](Cc1ccccc1)NC(=O)[C@@H]1CCCN1)C(=O)N[C@@H](CCC(N)=O)C(N)=O [Ala] (H-PFRAVQ-NH2)
- Ki [1, 4]: 131 µM and 161 µM
- Ki [2, 5]: 0.536 mM

Molecule: N=C(N)NCCC[C@H](NC(=O)[C@H](CC(N)=O)NC(=O)[C@H](CCCNC(=N)N)NC(=O)[C@H](Cc1ccccc1)NC(=O)[C@@H](N)CCCNC(=N)N)C(=O)N[C@@H](CCC(N)=O)C(N)=O [Arg-Phe-Arg-Asn-Arg-Gln] (H-RFRNRQ-NH2)
- Ki ([2]; Table 6, HUK, read-out: KI HUK): 0.052 mM

Molecule: CC(C)[C@H](NC(=O)[C@H](CC(N)=O)NC(=O)[C@H](CCCNC(=N)N)NC(=O)[C@H](Cc1ccccc1)NC(=O)[C@@H]1CCCN1)C(=O)N[C@@H](CCC(N)=O)C(N)=O [Asn] (H-PFRNVQ-NH2)
- Ki [1, 4]: 58 µM and 99 µM and 67 µM
- Ki ([1]; Table 5, values in [] : Dithiothreitol, read-out: KI PPK): 33 µM
- Ki ([3]; Table 5, Pro-Phe-Arg-X-Val-Gln): 99 µM
- Ki [2, 5]: 0.244 mM

Molecule: CC(C)[C@H](NC(=O)[C@@H](CO)NC(=O)[C@H](CCCNC(=N)N)NC(=O)[C@H](Cc1ccccc1)NC(=O)[C@@H]1CCCN1)C(=O)N[C@@H](CCC(N)=O)C(N)=O [D-Ser] (H-PFR[dS]VQ-NH2)
- Ki [1, 4]: 1120 µM

Molecule: CC(C)[C@H](NC(=O)[C@H](CCO)NC(=O)[C@H](CCCNC(=N)N)NC(=O)[C@H](Cc1ccccc1)NC(=O)[C@@H]1CCCN1)C(=O)N[C@@H](CCC(N)=O)C(N)=O [Hse] (H-PFR[hSer]VQ-NH2)
- Ki [1, 4]: 163 µM
- Ki [2, 5]: 0.359 mM

Molecule: CC(C)[C@H](NC(=O)[C@H](CO)NC(=O)[C@H](CCCNC(=N)N)NC(=O)[C@H](Cc1ccccc1F)NC(=O)[C@@H]1CCCN1)C(=O)N[C@@H](CCC(N)=O)C(N)=O [KCH-1] (H-P[Phe(2-F)]RSVQ-NH2)
- Ki [1, 6]: 124 µM
- Ki ([3]; Table 4, Pro-X-Arg-Ser-Val-Gln): 151 µM
- Ki [2, 7]: 0.472 mM

Molecule: CC(C)[C@H](NC(=O)[C@H](CO)NC(=O)[C@H](CCCNC(=N)N)NC(=O)[C@H](CCc1ccccc1)NC(=O)[C@@H]1CCCN1)C(=O)N[C@@H](CCC(N)=O)C(N)=O [KCH-2] (H-P[hPhe]RSVQ-NH2)
- Ki [1, 6]: 402 µM
- Ki [2, 7]: 0.545 mM

Molecule: CC(C)[C@H](NC(=O)[C@H](CO)NC(=O)[C@H](CCCNC(=N)N)NC(=O)[C@@H](NC(=O)[C@@H]1CCCN1)c1ccccc1)C(=O)N[C@@H](CCC(N)=O)C(N)=O [KCH-5] (H-P[Phg]RSVQ-NH2)
- Ki [1, 6]: 1320 µM
- KI HPK ([2]; Table 4, Pro-X-Arg-Ser-Val-Gln): ni

Molecule: CC(C)[C@H](NC(=O)[C@H](CO)NC(=O)[C@H](CCCNC(=N)N)NC(=O)[C@H](Cc1c[nH]c2ccccc12)NC(=O)[C@@H]1CCCN1)C(=O)N[C@@H](CCC(N)=O)C(N)=O [KCH-11] (H-PWRSVQ-NH2)
- Ki [1, 6]: 230 µM
- Ki [2, 7]: 0.449 mM

Molecule: CC(C)[C@H](NC(=O)[C@H](CO)NC(=O)[C@H](CCCNC(N)=O)NC(=O)[C@H](Cc1ccccc1)NC(=O)[C@@H]1CCCN1)C(=O)N[C@@H](CCC(N)=O)C(N)=O [KIDZ-7, Pro-Phe-Cit-Ser-Val-Gln] (H-PF[Cit]SVQ-NH2)
- Ki ([1]; Table 7, in mM, read-out: K1 PPK): > 3000 µM
- Ki ([2]; Table 7, in mM, read-out: K1 HPK): > 5 mM

Molecule: CC(C)[C@H](NC(=O)[C@H](CO)NC(=O)[C@H](CCCCCN)NC(=O)[C@H](Cc1ccccc1)NC(=O)[C@@H]1CCCN1)C(=O)N[C@@H](CCC(N)=O)C(N)=O [KIDZ-8, Pro-Phe-hLys-Ser-Val-Gln] (H-PF[hLys]SVQ-NH2)
- Ki ([1]; Table 7, read-out: K1 PPK): 203 µM

Molecule: CC(C)[C@H](N)C(=O)N[C@@H](Cc1ccccc1)C(=O)N[C@H](C=O)Cc1ccc(N)cc1 [KITDS-2, Val-Phe-Phe(4NH2)-aldehyde] (H-Val-Phe-[Phe(4-NH2)]-aldehyde)
- Ki ([1]; Table 7, read-out: K1 PPK): 160 µM

Molecule: Nc1ccc(C[C@@H](C=O)NC(=O)[C@H](Cc2ccccc2)NC(=O)[C@@H]2CCCN2C(=O)[C@@H](N)Cc2ccccc2)cc1 [KITSD-1, Phe-Pro-Phe-Phe(4NH2)-aldehyde] (H-FPF[Phe(4-NH2)]-aldehyde)
- Ki ([1]; Table 7, read-out: K1 PPK): 27 µM

Molecule: CC(C)[C@H](NC(=O)[C@H](CO)NC(=O)[C@H](CCCNC(=N)N)NC(=O)[C@H](Cc1ccccc1)NC(=O)CN)C(=O)N[C@@H](CCC(N)=O)C(N)=O [KKI-80, Gly-Phe-Arg-Ser-Val-Gln] (H-GFRSVQ-NH2)
- Ki [1, 8]: 79.4 µM

Molecule: CC(C)[C@H](NC(=O)[C@H](CO)NC(=O)[C@H](CCCNC(=N)N)NC(=O)[C@H](Cc1ccccc1)NC(=O)[C@@H](C)N)C(=O)N[C@@H](CCC(N)=O)C(N)=O [KKI-81, [D-Ala]-Phe-Arg-Ser-Val-Gln] (H-[dA]FRSVQ-NH2)
- Ki [1, 8]: 50.1 µM

Molecule: CC[C@@H](N)C(=O)N[C@@H](Cc1ccccc1)C(=O)N[C@@H](CCCNC(=N)N)C(=O)N[C@@H](CO)C(=O)N[C@H](C(=O)N[C@@H](CCC(N)=O)C(N)=O)C(C)C [KKI-82, [D-Aab]-Phe-Arg-Ser-Val-Gln] (H-[dAbu]FRSVQ-NH2)
- Ki [1, 8]: 43.7 µM

Molecule: CC(C)[C@H](NC(=O)[C@H](CO)NC(=O)[C@H](CCCNC(=N)N)NC(=O)[C@H](Cc1ccccc1)NC(=O)[C@H](N)C(C)C)C(=O)N[C@@H](CCC(N)=O)C(N)=O [KKI-83, [D-Val]-Phe-Arg-Ser-Val-Gln] (H-[dV]FRSVQ-NH2)
- Ki [1, 8]: 100 µM

Molecule: CC(C)[C@H](NC(=O)[C@H](CO)NC(=O)[C@H](CCCNC(=N)N)NC(=O)[C@H](Cc1ccccc1)NC(=O)[C@H](N)C(C)(C)C)C(=O)N[C@@H](CCC(N)=O)C(N)=O [KKI-84, [D-t-BuGly]-Phe-Arg-Ser-Val-Gln] (H-[dTle]FRSVQ-NH2)
- Ki [1, 8]: 75.9 µM

Molecule: CC[C@@H](C)[C@@H](N)C(=O)N[C@@H](Cc1ccccc1)C(=O)N[C@@H](CCCNC(=N)N)C(=O)N[C@@H](CO)C(=O)N[C@H](C(=O)N[C@@H](CCC(N)=O)C(N)=O)C(C)C [KKI-85, [D-Ile]-Phe-Arg-Ser-Val-Gln] (H-[dI]FRSVQ-NH2)
- Ki ([1]; text b291, β-PPK, read-out: KI): 34 µM

Molecule: CC[C@H](C)[C@@H](N)C(=O)N[C@@H](Cc1ccccc1)C(=O)N[C@@H](CCCNC(=N)N)C(=O)N[C@@H](CO)C(=O)N[C@H](C(=O)N[C@@H](CCC(N)=O)C(N)=O)C(C)C [KKI-105] (H-[d(aIle)]FRSVQ-NH2)
- Ki [1, 8]: 57.5 µM

Molecule: CC[C@H](C)[C@H](NC(=O)[C@H](CCCNC(=N)N)NC(=O)[C@H](C)NC(=O)[C@H](CCCCN)NC(=O)[C@H](CS)NC(=O)[C@@H]1CCCN1)C(N)=O [Pro-Cys-Lys-Ala-Arg-Ile] (H-PCKARI-NH2)
- Ki ([1]; Table 6, read-out: KI PPK): 0.003 µM
- Ki ([2]; Table 6, HUK, read-out: KI HUK): 0.00018 mM

Molecule: CC(C)[C@H](N)C(=O)N[C@@H](Cc1ccccc1)C(=O)N[C@@H](CCCNC(=N)N)C(=O)N[C@@H](CC(N)=O)C(=O)N[C@@H](CCCNC(=N)N)C(=O)N[C@@H](CCC(N)=O)C(N)=O [Val-Phe-Arg-Asn-Arg-Gln] (H-VFRNRQ-NH2)
- Ki ([2]; Table 6, HUK, read-out: KI HUK): 0.532 mM

Molecule: CC(C)[C@H](N)C(=O)N[C@@H](Cc1ccccc1)C(=O)N[C@@H](CCCNC(=N)N)C(=O)N[C@@H](CC(N)=O)C(=O)N[C@@H](CC(N)=O)C(=O)N[C@@H](CCCNC(=N)N)C(N)=O [Val-Phe-Arg-Asn-Asn-Arg] (H-VFRNNR-NH2)
- Ki ([2]; Table 6, HUK, read-out: KI HUK): 0.124 mM

Molecule: CC(C)[C@H](N)C(=O)N[C@@H](Cc1ccccc1)C(=O)N[C@@H](CCCNC(=N)N)C(=O)N[C@@H](CC(N)=O)C(=O)N[C@@H](CO)C(=O)N[C@@H](CCCNC(=N)N)C(N)=O [Val-Phe-Arg-Asn-Ser-Arg] (H-VFRNSR-NH2)
- Ki ([2]; Table 6, HUK, read-out: KI HUK): 0.194 mM

Molecule: CC(C)[C@H](N)C(=O)N[C@@H](Cc1ccccc1)C(=O)N[C@@H](CCCNC(=N)N)C(=O)N[C@@H](CC(N)=O)C(=O)N[C@H](CCCNC(=N)N)C(=O)N[C@@H](CCC(N)=O)C(N)=O [Val-Phe-Arg-Asn-dArg-Gln] (H-VFRN[dR]Q-NH2)
- Ki ([2]; Table 6, HUK, read-out: KI HUK): 1.57 mM

Molecule: CC(C)[C@H](N)C(=O)N[C@@H](Cc1ccccc1)C(=O)N[C@@H](CCCCNC(=N)N)C(=O)N[C@@H](CC(N)=O)C(=O)N[C@@H](CCCCNC(=N)N)C(=O)N[C@@H](CCC(N)=O)C(N)=O [Val-Phe-hArg-Asn-hArg-Gln] (H-VF[hArg]N[hArg]Q-NH2)
- Ki ([1]; Table 6, read-out: KI PPK): 2.9 µM and 10 µM
- Ki ([2]; Table 6, HUK, read-out: KI HUK): 0.298 mM

Molecule: ChCar-Phe-Arg-dia-Val-Gln (ChCar-FR[dia]VQ; reading uncertain; also: printed as ChCar-Phe-Arg-dia-Val-Gln)
- Ki ([1]; Table 6, read-out: KI PPK): 114 µM
- Ki ([2]; Table 6, HUK, read-out: KI HUK): 0.985 mM

— patent publication US5464820A, “Specific inhibitors of tissue kallikrein” (priority 1993, dated 1995)
